Source: patent US20140212381A1, “MACROCYCLES” (Scynexis, Inc., priority 2012, published 2014)
Values after ≈ are worked out from the molar mass of the structure shown. Values joined by “and” are separate entries in the source; they are usually repeats but may differ in a detail not shown here. Equal entries are not always repeated. Where two headings read alike, the source gives them in different places. Numbered stars: 1 amine (or outer) side, 2 acyl side, 3 side chain; on linkers, the order of the positions; unused ones are H or OH. Square brackets hold non-standard residues; d marks the D form. Peptide text beside a SMILES is read from it. ξ: configuration not given here. X5 = CCN(CC)C1(CS[C@H](C(=O)[*:2])N(C)[*:1])CC1; X1 = CN(C)C1(CS[C@H](C(=O)[*:2])N(C)[*:1])CCC1; ξNMeBmt = C/C=C/C[C@@H](C)[C@@H](O)C(NC)C(=O)O; X2 = CC(C)[C@H](C(=O)[*:2])N(Cc1ccccc1)[*:1]; NMeLeu(4-OH) = CN[C@@H](CC(C)(C)O)C(=O)O; NMeL = CN[C@@H](CC(C)C)C(=O)O; dNMeL = CN[C@H](CC(C)C)C(=O)O; dNMeV = CN[C@@H](C(=O)O)C(C)C; dAbu = CC[C@@H](N)C(=O)O

Experiments:
[1] = tested on: human Hepatitis B Virus (HBV); test: HBV antiviral activity in hepatic cell lines; type: cell-based; details: read-out: EC50, HBV
Cyclophilin B = Cyclophilin B (Homo sapiens, UniProt P23284); test: Cyclophilin binding, competitive ELISA; details: human recombinant cyclophilin
Cyclophilin B, sequence (P23284 34-216): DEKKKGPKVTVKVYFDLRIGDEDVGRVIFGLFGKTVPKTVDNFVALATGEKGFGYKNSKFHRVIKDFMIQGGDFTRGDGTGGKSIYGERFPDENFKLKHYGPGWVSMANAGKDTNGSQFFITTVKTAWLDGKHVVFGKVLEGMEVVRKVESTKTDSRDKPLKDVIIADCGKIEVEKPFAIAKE
Text: Plates were washed as described above. […] Plates were washed as described above.

[2] = tested on: IL-2 production by stimulated T Cells (Jurkat cells); test: Inhibition of IL-2 production in stimulated Jurkat cells; type: cell-based; details: Homo sapiens, read-out: IL-2 inhibition IC50
Procedure: Compounds of formula (I) were tested for their inhibition of IL-2 production by stimulated T Cells, using Jurkat cells with anti-CD3 and anti-CD28 co-stimulation. […] Cyclosporine A (control) was also run at a 0.5-Log 9-point titration. starting at 500 ng/mL. All compounds to be tested were dissolved in dimethyl sulfoxide. Cytotoxicity was evaluated with parallel Alamar Blue plates. Jurkat cells were seeded at […] per well in 200 μL growth media in a 96-well plate. Cells were cultured in complete RPMI medium supplemented with 10% fetal bovine serum with one hour incubation at 37° C. with 5% carbon dioxide
PMA and PHA were diluted in complete media to a final concentration of 1 ng/mL and 5 μg/mL respectively. The diluted compounds were mixed 1:1 and 25 μL of the mixture was added per well. The plates were incubated overnight at 37° C. in 5% CO2.
The following day one hundred microliters of cell culture supernatant were transferred from each well to a non-sterile V-bottom plate and stored plate at −80° C. prior to analysis. Determination of IL-2 concentrations in the supernatant was performed using the Pierce Human IL-2 Colorimetric ELISA kit as per the manufacturer's directions (Pierce, #EH2IL25). Cell culture supernatants were diluted with an equal volume of complete RPMI (25 μL sample+25 μL RPMI per well) prior to testing in order to remain in linear range of the assay.
Duplicate wells containing cells in the absence of PMA/PHA and test drug (background) and duplicate wells containing cells stimulated with PMA/PHA in the absence of test drug (100% production of IL-2) were included as controls. Activated cells treated with DMSO were used to normalize IL-2 values. IL-2 standard curves were generated using a 4-parameter curve fit in SoftMax Pro software from Molecular Devices.
Two independent assays were performed to evaluate the effect of cyclosporine A and representative compounds on IL-2 production in PMA/PHA stimulated Jurkat cells (mean values were calculated).

[3] = tested on: IFN-λ1 (IL-29) in human peripheral blood mononuclear cells (PBMCs); test: IL-29 production in human PBMCs (ELISA); type: cell-based; details: for pg/mL IL29 Av.: average; for pg/mL IL29: single wells
[4] = tested on: IFN-α in human peripheral blood mononuclear cells (PBMCs); test: IFN-α production in human PBMCs (ELISA); type: cell-based; details: for pg/mL IFNα Av.: average; for pg/mL IFNα: single wells
[5] = tested on: HCV RNA replicon, Genotype 1b; test: HCV replicon assay, 1b replicon (LUC); details: Hepatitis C virus, GETYPE1B, in Homo sapiens, 72 h, read-out: mean EC50, Genotype 1b
[6] = tested on: Influenza A H1N1 (A/CA/05/09); test: Anti-influenza virus cytoprotection assay in MDCK cells; type: cell-based; details: read-out: levels of inhibition
[7] = tested on: Influenza A H3N2 (A/HK/8/68); test: as above; type: cell-based; details: read-out: levels of inhibition
Influenza B (B/Allen/45) = test: as above; type: cell-based; details: read-out: levels of inhibition
[8] = PMA/PHA stimulated Jurkat cells, mean of two independent assays
[9] = donor CC1 (HCV), 2 μM for 24 hours
[10] = donor CT2 (HCV), first test, 2 μM for 24 hours
[11] = donor CT2 (test 2) (HCV), 2 μM for 24 hours
[12] = donor CT2 (test 3) (HCV, cryopreserved), 2 μM for 24 hours
[13] = donor CT4 (HCV), 2 μM for 24 hours, background subtracted
[14] = donor Healthy 1, 2 μM for 24 hours
[15] = donor Healthy 2, 2 μM for 24 hours, background subtracted
[16] = donor Healthy 3, 2 μM for 24 hours
[17] = donor CT1 (HCV), 2 μM for 24 hours
[18] = donor Healthy 2, 2 μM for 24 hours

`CC=CC[C@@H](C)[C@@H](O)C1C(=O)NC(CC)C(=O)N(C)C(SCC2(N(C)C(C)C)CC2)C(=O)N(C)[C@@H](CC(C)(C)O)C(=O)NC(C(C)C)C(=O)N(C)C(CC(C)C)C(=O)NC(C)C(=O)NC(C)C(=O)N(C)C(CC(C)C)C(=O)N(C)C(CC(C)C)C(=O)N(C)C(C(C)C)C(=O)N1C` (stereo in doubt) [Compound B] was tested. Which EC50 [1] did it give?
The EC50 was > 20100 nM.

And the IC50 (Cyclophilin B)?
The IC50 was 23 nM.

What about the IC50 [2, 8] of the same molecule?
Its IC50 is 7.69 µg/mL (≈ 5.59 µM).

What about the “pg/mL IL29 Av.” value [3, 9] of the same molecule?
The value was 79 pg/mL.

What about the “pg/mL IL29” value [3, 9] of the same molecule?
Its value is 80 pg/mL and 78 pg/mL.

What about the “pg/mL IL29 Av.” value [3, 10] of the same molecule?
Its value is 997 pg/mL.

And the “pg/mL IL29” value [3, 10]?
The value was 1057 pg/mL and 937 pg/mL.

What about the “pg/mL IL29 Av.” value [3, 11] of the same molecule?
The value was 96 pg/mL.

And the “pg/mL IL29” value [3, 11]?
Its value is 99 pg/mL and 93 pg/mL.

What about the “pg/mL IL29 Av.” value [3, 12] of the same molecule?
The value was 91.5 pg/mL.

And the “pg/mL IL29” value [3, 12]?
Its value is 88 pg/mL and 95 pg/mL.

And the “pg/mL IL29 Av.” value [3, 13]?
Its value is 16 pg/mL.

And the “pg/mL IL29” value [3, 13]?
Its value is 11 pg/mL and 21 pg/mL.

And the “pg/mL IL29 Av.” value [3, 14]?
Its value is 10 pg/mL.

And the “pg/mL IL29 Av.” value [3, 15]?
Its value is “<LOQ”.

What about the “pg/mL IL29” value [3, 15] of the same molecule?
Its value is “<LOQ”.

And the “pg/mL IL29 Av.” value [3, 16]?
The value was “<LOQ”.

And the “pg/mL IL29” value [3, 16]?
Its value is “<LOQ”.

What about the “pg/mL IFNα Av.” value [4, 9] of the same molecule?
The value was 16 pg/mL.

What about the “pg/mL IFNα” value [4, 9] of the same molecule?
The value was 15 pg/mL.

And the “pg/mL IFNα Av.” value [4, 17]?
The value was 20.5 pg/mL.

What about the “pg/mL IFNα” value [4, 17] of the same molecule?
Its value is 23 pg/mL.

And the “pg/mL IFNα Av.” value [4, 10]?
Its value is 7 pg/mL.

What about the “pg/mL IFNα” value [4, 10] of the same molecule?
The value was 8 pg/mL and 6 pg/mL.

What about the “pg/mL IFNα Av.” value [4, 11] of the same molecule?
The value was 7.5 pg/mL.

And the “pg/mL IFNα” value [4, 11]?
Its value is 8 pg/mL and 7 pg/mL.

And the “pg/mL IFNα Av.” value [4, 12]?
The value was 8 pg/mL.

And the “pg/mL IFNα” value [4, 12]?
Its value is 8 pg/mL.

What about the “pg/mL IFNα Av.” value [4, 13] of the same molecule?
The value was 5 pg/mL.

And the “pg/mL IFNα” value [4, 13]?
Its value is 6 pg/mL and 4 pg/mL.

And the “pg/mL IFNα Av.” value [4, 14]?
Its value is “<LOQ”.

And the “pg/mL IFNα” value [4, 14]?
The value was “<LOQ”.

What about the “pg/mL IFNα Av.” value [4, 18] of the same molecule?
Its value is “<LOQ”.

What about the “pg/mL IFNα” value [4, 18] of the same molecule?
The value was “<LOQ”.

What about the “pg/mL IFNα Av.” value [4, 16] of the same molecule?
Its value is “<LOQ”.

And the “pg/mL IFNα” value [4, 16]?
The value was “<LOQ”.

What about the EC50 [5] of the same molecule?
The EC50 was 60 nM.

With `C/C=C/C[C@@H](C)[C@@H](O)C1C(=O)N[C@H](CC)C(=O)N(C)[C@H](SCC2(N(C)C)CCC2)C(=O)N(C)[C@@H](CC(C)C)C(=O)N(Cc2ccccc2)[C@H](C(C)C)C(=O)N(C)[C@H](CC(C)C)C(=O)N[C@H](C)C(=O)N[C@@H](C)C(=O)N(C)[C@H](CC(C)C)C(=O)N(C)[C@H](CC(C)C)C(=O)N(C)[C@H](C(C)C)C(=O)N1C` (stereo partly shown) [Compound F] (cyclo(A[dNMeL][dNMeL][dNMeV][ξNMeBmt][dAbu][X1][NMeL][X2][dNMeL][dA])) as the molecule, how does the inhibition at 10 µM [6] read?
Its inhibition at 10 µM is 98%.

What about the inhibition at 10 µM [7] of the same molecule?
Its inhibition at 10 µM is 68%.

What about the inhibition at 10 µM (Influenza B (B/Allen/45)) of the same molecule?
The inhibition at 10 µM was 15%.

And the IC50 (Cyclophilin B)?
Its IC50 is 43 nM.

And the IC50 ([2]; Jurkat)?
The IC50 was 0.452 µg/mL (≈ 0.315 µM).

And the EC50 [5]?
The EC50 was 520 nM.

For `C/C=C/C[C@@H](C)[C@@H](O)C1C(=O)N[C@H](CC)C(=O)N(C)[C@H](SCC2(N(CC)CC)CC2)C(=O)N(C)[C@@H](CC(C)(C)O)C(=O)N[C@H](C(C)C)C(=O)N(C)[C@H](CC(C)C)C(=O)N[C@H](C)C(=O)N[C@@H](C)C(=O)N(C)[C@H](CC(C)C)C(=O)N(C)[C@H](CC(C)C)C(=O)N(C)[C@H](C(C)C)C(=O)N1C` (stereo partly shown) [Compound D] (cyclo(A[dNMeL][dNMeL][dNMeV][ξNMeBmt][dAbu][X5][NMeLeu(4-OH)][dV][dNMeL][dA])), which IC50 (Cyclophilin B) is on record?
Its IC50 is 64 nM.

What about the IC50 [2, 8] of the same molecule?
Its IC50 is 13.4 µg/mL (≈ 9.74 µM).

And the EC50 [5]?
The EC50 was 70 nM.
